In patent US11813306B2, “Cyclic tetramer compounds as proprotein convertase subtilisin/kexin type 9 (PCSK9) inhibitors for the treatment of metabolic disorders” (NOVARTIS AG, priority 2018, dated 2023) one finds IC50 and Max % inhibition data, which are given here for 15 compounds.

The experiment concerns the target human PCSK9 (Homo sapiens, UniProt Q8NBP7). The experiment can be described thus: PCSK9 ligand binding assay (TR-FRET): interference with binding of human PCSK9 to human LDLR. The note with it: for IC50: Human PCSK9 Alexa Fluor 647 / Human LDLR extracellular domain-Europium Kryptate; for Max % inhibition: efficacy (Amax), 100% = 1 uM unlabeled human PCSK9, 0% = DMSO. The gist of the method: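 Read-out was TR-FRET ratio (665 nm over 615 nm, 330 nm excitation) between Alexa Fluor 647-human PCSK9 (16 nM added) and Europium Kryptate-human LDLR ectodomain (4 nM added). Compound and PCSK9 were mixed 30 min before LDLR, then incubated 2 h. Inhibition was normalised to DMSO and unlabelled-PCSK9 controls, giving IC50 and Amax.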
(In general: In TR-FRET formats the signal depends on donor and acceptor labels being close together.)

human PCSK9, sequence (Q8NBP7 153-692): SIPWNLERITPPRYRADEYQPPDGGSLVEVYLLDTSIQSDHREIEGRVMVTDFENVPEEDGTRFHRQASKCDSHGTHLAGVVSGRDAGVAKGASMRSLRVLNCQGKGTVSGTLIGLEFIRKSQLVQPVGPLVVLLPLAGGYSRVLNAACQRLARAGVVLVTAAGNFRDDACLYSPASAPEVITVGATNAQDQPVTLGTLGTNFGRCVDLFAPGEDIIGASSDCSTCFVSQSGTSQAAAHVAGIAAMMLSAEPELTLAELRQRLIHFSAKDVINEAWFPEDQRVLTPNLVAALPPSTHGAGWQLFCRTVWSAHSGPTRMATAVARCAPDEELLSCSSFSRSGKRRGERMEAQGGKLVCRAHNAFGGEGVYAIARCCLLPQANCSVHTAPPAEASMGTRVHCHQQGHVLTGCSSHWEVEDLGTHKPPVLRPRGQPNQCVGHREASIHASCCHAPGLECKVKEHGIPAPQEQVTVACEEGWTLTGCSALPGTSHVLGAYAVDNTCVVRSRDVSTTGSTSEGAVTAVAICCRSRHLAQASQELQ
human PCSK9, sequence (Q8NBP7 31-152 partner limits assumed): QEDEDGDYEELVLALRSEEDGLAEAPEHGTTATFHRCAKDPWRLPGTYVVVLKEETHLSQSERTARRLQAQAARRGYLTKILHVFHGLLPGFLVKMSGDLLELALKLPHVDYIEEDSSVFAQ

What is called IC50 is the midpoint of a concentration-inhibition curve. High values mean lower potency, low ones higher potency. `C[C@H]1C(=O)N[C@@H](CO)C(=O)N(C)[C@H](Cc2ccc(Cl)cc2)CN(C)C(=O)[C@H](Cc2ccccc2)CC(=O)N1Cc1ccc(Cl)cc1Oc1cc(F)c(-c2cnc(CN3CCCC3)n2C)c(F)c1.Cl` [Compound 106, (2S, 5S, 8R, 12R)-12-benzyl-1-(4-chloro-2-(3,5-difluoro-4-(1-methyl-2-(pyrrolidin-1-ylmethyl)-1H-imidazol-5-yl)phenoxy)benzyl)-8-(4-chlorobenzyl)-5-(hydroxymethyl)-2,7,10-trimethyl-1,4,7,10-tetraazacyclotetradecane-3,6,11,14-tetraone]: the IC50 came to 0.00852 µM and the Max % inhibition is listed as 105.1%.

As to `C[C@@H](c1ccccc1)[C@@H]1CC(=O)N(Cc2ccc(Cl)cc2Oc2ccc(-c3cnc(CN4CCCC4)n3C)cc2)[C@@H](C)C(=O)N[C@@H](CO)C(=O)N(C)[C@H](Cc2ccc(Cl)cc2)CN(C)C1=O.Cl` [Compound 107, (2S, 5S, 8R, 12S)-1-(4-chloro-2-(4-(1-methyl-2-(pyrrolidin-1-ylmethyl)-1H-imidazol-5-yl)phenoxy)benzyl)-8-(4-chlorobenzyl)-5-(hydroxymethyl)-2,7,10-trimethyl-12-((R)-1-phenylethyl)-1,4,7,10-tetraazacyclotetradecane-3,6,11,14-tetraone], the IC50 is 0.00783 µM and the Max % inhibition was 105.6%.

In the case of `C[C@H]1C(=O)N[C@@H](CO)C(=O)N(C)[C@H](Cc2ccc(Cl)cc2)CN(C)C(=O)[C@H](Cc2ccccc2)CC(=O)N1Cc1ccc(Cl)cc1Oc1ccc(-c2cnc(CN3CCCC3)n2C)cc1.Cl` [Compound 108, (2S, 5S, 8R, 12R)-12-benzyl-1-(4-chloro-2-(4-(1-methyl-2-(pyrrolidin-1-ylmethyl)-1H-imidazol-5-yl)phenoxy)benzyl)-8-(4-chlorobenzyl)-5-(hydroxymethyl)-2,7,10-trimethyl-1,4,7, 10-tetraazacyclotetradecane-3,6,11,14-tetraone], the IC50 was determined as 0.00932 µM and the Max % inhibition was determined as 104.6%.

With `C[C@H](O)[C@@H]1NC(=O)[C@H](C)N(Cc2ccc(Cl)cc2Oc2ccc(-c3cnc(CN(C)C)n3C)cc2)C(=O)C[C@@H](Cc2ccccc2)C(=O)N2CCC[C@@](Cc3ccc(Cl)cc3)(C2)NC1=O` [Compound 109, (3R, 7S, 10S, 13R)-3-benzyl-6-(4-chloro-2-(4-(2-((dimethylamino)methyl)-1-methyl-1H-imidazol-5-yl)phenoxy)benzyl)-13-(4-chlorobenzyl)-10-((S)-1-hydroxyethyl)-7-methyl-1,6,9,12-tetraazabicyclo[11.3.1]heptadecane-2,5,8,11-tetraone], the IC50 is 0.0111 µM and the Max % inhibition is 82.0%.

Regarding `COC[C@@H]1NC(=O)[C@H](C)N(Cc2ccc(Cl)cc2Oc2ccc(-c3cnc(CN4CCCC4)n3C)cc2)C(=O)C[C@@H]([C@H]2COc3c(OC)cccc32)C(=O)N(C)C[C@@H](Cc2ccc(Cl)cc2)N(C)C1=O.Cl` [Compound 110, (2S, 5S, 8R, 12S)-1-(4-chloro-2-(4-(1-methyl-2-(pyrrolidin-1-ylmethyl)-1H-imidazol-5-yl)phenoxy)benzyl)-8-(4-chlorobenzyl)-12-((R)-7-methoxy-2,3-dihydrobenzofuran-3-yl)-5-(methoxymethyl)-2,7,10-trimethyl-1,4,7,10-tetraazacyclotetradecane-3,6,11,14-tetraone], the IC50 was found to be 0.0102 µM and the Max % inhibition came out at 102.2%.

With `COC[C@@H]1NC(=O)[C@H](C)N(Cc2ccc(Cl)cc2Oc2ccc(-c3cnc(CN4CCCC4)n3C)cc2)C(=O)C[C@@H]([C@H]2CC(C)(C)c3ccccc32)C(=O)N(C)C[C@@H](Cc2ccc(Cl)cc2)N(C)C1=O.Cl` [Compound 111, (2S, 5S, 8R, 12S)-1-(4-chloro-2-(4-(1-methyl-2-(pyrrolidin-1-ylmethyl)-1H-imidazol-5-yl)phenoxy)benzyl)-8-(4-chlorobenzyl)-12-((R)-3,3-dimethyl-2,3-dihydro-1H-inden-1-yl)-5-(methoxymethyl)-2,7,10-trimethyl-1,4,7,10-tetraazacyclotetradecane-3,6,11,14-tetraone], the IC50 was determined as 0.0114 µM and the Max % inhibition is 102.4%.

On to `CC[C@@H]1CC(=O)N(Cc2c(OCC(F)(F)F)cc(Cl)cc2Oc2ccc(-c3cnc(CN4CCCC4)n3C)cc2)[C@@H](C)C(=O)N[C@@H](CO)C(=O)N(C)[C@H](Cc2ccc(Cl)cc2)CNC1=O.Cl` [Compound 112, (2S, 5S, 8R, 12R)-1-(4-chloro-2-(4-(1-methyl-2-(pyrrolidin-1-ylmethyl)-1H-imidazol-5-yl)phenoxy)-6-(2,2,2-trifluoroethoxy)benzyl)-8-(4-chlorobenzyl)-12-ethyl-5-(hydroxymethyl)-2,7-dimethyl-1,4,7,10-tetraazacyclotetradecane-3,6,11,14-tetraone], for which the IC50 worked out at 0.0135 µM and the Max % inhibition was 98.8%.

Take `COC[C@@H]1NC(=O)[C@H](C)N(Cc2ccc(Cl)cc2Oc2ccc(-c3cnc(CN4CCCC4)n3C)cc2)C(=O)C[C@@H]([C@H]2CCc3ccccc32)C(=O)N(CCC(F)F)C[C@@H](Cc2ccc(Cl)cc2)N(C)C1=O.Cl` [Compound 113]: the half-inhibitory concentration (IC50) was 0.0216 µM and the Max % inhibition is 102.5%.

As for `COC[C@@H]1NC(=O)[C@H](C)N(Cc2ccc(Cl)cc2Oc2ccc(-c3cnc(CN4CCCC4)n3C)cc2)C(=O)C[C@@H](Cc2ccccc2)C(=O)N(C)C[C@@H](Cc2ccc(Cl)cc2)N(C)C1=O.Cl` [Compound 114, (2S, 5S, 8R, 12R)-12-benzyl-1-(4-chloro-2-(4-(1-methyl-2-(pyrrolidin-1-ylmethyl)-1H-imidazol-5-yl)phenoxy)benzyl)-8-(4-chlorobenzyl)-5-(methoxymethyl)-2,7,10-trimethyl-1,4,7,10-tetraazacyclotetradecane-3,6,11,14-tetraone], the IC50 was 0.0214 µM and the Max % inhibition worked out at 95.9%.

In the case of `COC[C@@H]1NC(=O)[C@H](C)N(Cc2ccc(Cl)cc2Oc2ccc(-c3cnc(CN4CCCC4)n3C)cc2)C(=O)C[C@@H]([C@H]2CCc3ccccc32)C(=O)N(CC2(C)CC2)C[C@@H](Cc2ccc(Cl)cc2)N(C)C1=O.Cl` [Compound 115, (2S, 5S, 8R, 12S)-1-(4-chloro-2-(4-(1-methyl-2-(pyrrolidin-1-ylmethyl)-1H-imidazol-5-yl)phenoxy)benzyl)-8-(4-chlorobenzyl)-12-((R)-2,3-dihydro-1H-inden-1-yI)-5-(methoxymethyl)-2,7-dimethyl-10-((1-methylcyclopropyl)methyl)-1,4,7,10-tetraazacyclotetradecane-3,6,11,14-tetraone], the IC50 amounted to 0.025 µM and the Max % inhibition is reported as 99.0%.

Consider `COC[C@@H]1NC(=O)[C@H](C)N(Cc2ccc(Cl)cc2Oc2ccc(-c3cnc(CN4CCCC4)n3C)cc2)C(=O)C[C@@H](Cc2ccccc2)C(=O)N(CCCN(C)C)C[C@@H](Cc2ccc(Cl)cc2)N(C)C1=O.Cl` [Compound 116, (2S, 5S, 8R, 12R)-12-benzyl-1-(4-chloro-2-(4-(1-methyl-2-(pyrrolidin-1-ylmethyl)-1H-imidazol-5-yl)phenoxy)benzyl)-8-(4-chlorobenzyl)-10-(3-(dimethylamino)propyl)-5-(methoxymethyl)-2,7-dimethyl-1,4,7,10-tetraazacyclotetradecane-3,6,11,14-tetraone], for which the IC50 was 0.0197 µM and the Max % inhibition is 104.9%.

For `COC[C@@H]1NC(=O)[C@H](C)N(Cc2ccc(Cl)cc2Oc2cc(F)c(-c3cnc(CN4CCCC4)n3C)c(F)c2)C(=O)C[C@@H](Cc2ccccc2)C(=O)N(C)C[C@@H](Cc2ccc(Cl)cc2)N(C)C1=O.Cl` [Compound 117, (2S, 5S, 8R, 12R)-12-benzyl-1-(4-chloro-2-(3,5-difluoro-4-(1-methyl-2-(pyrrolidin-1-ylmethyl)-1H-imidazol-5-yl)phenoxy)benzyl)-8-(4-chlorobenzyl)-5-(methoxymethyl)-2,7,10-trimethyl-1,4,7,10-tetraazacyclotetradecane-3,6,11,14-tetraone], the IC50 was 0.0351 µM and the Max % inhibition amounted to 98.9%.

Regarding `CCc1ccc(CN2C(=O)C[C@@H]([C@@H]3CCc4ccccc43)C(=O)N(C)C[C@H](Cc3ccc(Cl)cc3)N(C)C(=O)[C@H](CO)NC(=O)[C@@H]2C)c(Oc2ccc(-c3cnc(CN(C)C)n3C)cc2)c1` [Compound 118, (2S, 5S, 8S, 12S)-8-(4-chlorobenzyl)-12-((S)-2,3-dihydro-1H-inden-1-yl)-1-(2-(4-(2-((dimethylamino)methyl)-1-methyl-1H-imidazol-5-yl)phenoxy)-4-ethylbenzyl)-5-(hydroxymethyl)-2,7,10-trimethyl-1,4,7,10-tetraazacyclotetradecane-3,6,11,14-tetraone], the IC50 stood at 0.0596 µM and the Max % inhibition is reported as 95.2%.

Regarding `CCc1ccc(CN2C(=O)C[C@@H]([C@@H]3CCc4ccccc43)C(=O)N(C)C[C@@H](Cc3ccc(Cl)cc3)N(C)C(=O)[C@H](CO)NC(=O)[C@@H]2C)c(Oc2ccc(-c3cnc(CN(C)C)n3C)cc2)c1` [Compound 119, (2S,5S,8R,12S)-8-(4-Chlorobenzyl)-12-((S)-2,3-dihydro-1H-inden-1-yl)-1-(2-(4-(2-((dimethylamino)methyl)-1-methyl-1H-imidazol-5-yl)phenoxy)-4-ethylbenzyl)-5-(hydroxymethyl)-2,7,10-trimethyl-1,4,7,10-tetraazacyclotetradecane-3,6,11,14-tetraone], the IC50 was found to be 0.0313 µM and the Max % inhibition is recorded as 94.0%.

Consider `CCc1ccc(CN2C(=O)C[C@@H]([C@@H]3CCc4ccccc43)C(=O)N(C)C[C@@H](Cc3ccc(Cl)cc3)N(C)C(=O)[C@@H](CO)NC(=O)[C@@H]2C)c(Oc2ccc(-c3cnc(CN(C)C)n3C)cc2)c1` [Compound 121], for which the IC50 worked out at 0.0915 µM and the Max % inhibition amounted to 92.9%.
